Values quoted from earlier work, collected in patent US12653912B2 (SHENZHEN CHINA RESOURCES JIUCHUANG MEDICAL AND …, priority 2020, dated 2026).

Details: 75 mg/m^2, intravenous bolus injecting

O=C1c2c(O)ccc(O)c2C(=O)c2c(NCCNCCO)ccc(NCCNCCO)c21 [mitoxantrone]
AUC at the maximum tolerated total dosage: 560 to 1700 ng·h/mL
